Test system: mice
Assay: Neuropharmacological assay (SmartCube), behavioral signature of compound-treated mice
Type: in vivo
Conditions: i.p. 15 min before behavioral test, most efficacious dose(s) of 3 doses
Outline: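 Read-out is an automated video-based behavioral signature, scored as per-class probabilities (e.g., anxiolytic, antidepressant) against reference compounds. Dosing was i.p. at three doses, 15 min pre-test, in NMP, polyethylene glycol and propylene glycol. Values shown are from the most efficacious dose(s).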

Compound	AD: ADHD (probability that behavioral signature matches class)	AG: analgesic (probability that behavioral signature matches class)	AX: anxiolytic (probability that behavioral signature matches class)	CE: cognitive enhancer (probability that behavioral signature matches class)	DP: anti-depressant (probability that behavioral signature matches class)	HA: hallucinogen (probability that behavioral signature matches class)	MS: mood stabilizer (probability that behavioral signature matches class)	PS: anti-psychotic (probability that behavioral signature matches class)	SD: sedative hypnotic (probability that behavioral signature matches class)	UN: uncharacterized CNS activity (probability that behavioral signature matches class)
FC1(F)CO[C@H]([C@@H]2CCCN2)c2ccccc21 [Compound I-139, (S)-2-((S)-4,4-difluoroisochroman-1-yl)pyrrolidine]	+ (LOQ ≤ + <5%)	+ (LOQ ≤ + <5%)	++ (5% ≤ ++ <25%)	++ (5% ≤ ++ <25%)	++ (5% ≤ ++ <25%)	+ (LOQ ≤ + <5%)	+ (LOQ ≤ + <5%)	+++ (25% ≤ +++ <50%)	+ (LOQ ≤ + <5%)	+ (LOQ ≤ + <5%)
FC1(F)CO[C@@H]([C@@H]2CCCN2)c2ccccc21 [Compound I-140, (S)-2-((R)-4,4-difluoroisochroman-1-yl)pyrrolidine]	+ (LOQ ≤ + <5%)	++ (5% ≤ ++ <25%)	++ (5% ≤ ++ <25%)	+++ (25% ≤ +++ <50%)	++ (5% ≤ ++ <25%)	+ (LOQ ≤ + <5%)	++ (5% ≤ ++ <25%)	++ (5% ≤ ++ <25%)	+++ (25% ≤ +++ <50%)	++ (5% ≤ ++ <25%)
c1cc2c(c3c1CO[C@H]3[C@@H]1CCCN1)OCO2 [Compound I-141, (S)-2-((R)-6,8-dihydro-[1,3]dioxolo[4,5-e]isobenzofuran-8-yl)-pyrrolidine]	++ (5% ≤ ++ <25%)	++ (5% ≤ ++ <25%)	++ (5% ≤ ++ <25%)	+++ (25% ≤ +++ <50%)	++ (5% ≤ ++ <25%)	++ (5% ≤ ++ <25%)	+ (LOQ ≤ + <5%)	++ (5% ≤ ++ <25%)	+ (LOQ ≤ + <5%)	++++ (50% ≤ ++++)
c1cc2c(c3c1CO[C@@H]3[C@@H]1CCCN1)OCO2 [Compound I-142, (S)-2-((S)-6,8-dihydro-[1,3]dioxolo[4,5-e]isobenzofuran-8-yl)-pyrrolidine]	+ (LOQ ≤ + <5%)	++ (5% ≤ ++ <25%)	+++ (25% ≤ +++ <50%)	++ (5% ≤ ++ <25%)	++ (5% ≤ ++ <25%)	+ (LOQ ≤ + <5%)	+ (LOQ ≤ + <5%)	++ (5% ≤ ++ <25%)	+ (LOQ ≤ + <5%)	++ (5% ≤ ++ <25%)
c1cc2c(c3c1CCO[C@@H]3[C@@H]1CCN1)OCO2 [Compound I-143, (S)-2-((S)-7,9-dihydro-6H-[1,3]dioxolo[4,5-h]isochromen-9-yl)azetidine]	+ (LOQ ≤ + <5%)	++ (5% ≤ ++ <25%)	++ (5% ≤ ++ <25%)	+ (LOQ ≤ + <5%)	++ (5% ≤ ++ <25%)	+ (LOQ ≤ + <5%)	+ (LOQ ≤ + <5%)	++ (5% ≤ ++ <25%)	+ (LOQ ≤ + <5%)	+++ (25% ≤ +++ <50%)
c1cc2c(c3c1CCO[C@H]3[C@@H]1CCN1)OCO2 [Compound I-144, (S)-2-((R)-7,9-dihydro-6H-[1,3]dioxolo[4,5-h]isochromen-9-yl)azetidine]	++ (5% ≤ ++ <25%)	++ (5% ≤ ++ <25%)	++ (5% ≤ ++ <25%)	++ (5% ≤ ++ <25%)	+++ (25% ≤ +++ <50%)	+ (LOQ ≤ + <5%)	++ (5% ≤ ++ <25%)	+++ (25% ≤ +++ <50%)	+ (LOQ ≤ + <5%)	+++ (25% ≤ +++ <50%)

Same assay, conditions: i.p. 15 min before behavioral test, most efficacious dose(s) of 3 doses

Compound	XG: anxiogenic (probability that behavioral signature matches class)
FC1(F)CO[C@H]([C@@H]2CCCN2)c2ccccc21 [Compound I-139, (S)-2-((S)-4,4-difluoroisochroman-1-yl)pyrrolidine]	+ (LOQ ≤ + <5%)
FC1(F)CO[C@@H]([C@@H]2CCCN2)c2ccccc21 [Compound I-140, (S)-2-((R)-4,4-difluoroisochroman-1-yl)pyrrolidine]	+ (LOQ ≤ + <5%)
c1cc2c(c3c1CO[C@H]3[C@@H]1CCCN1)OCO2 [Compound I-141, (S)-2-((R)-6,8-dihydro-[1,3]dioxolo[4,5-e]isobenzofuran-8-yl)-pyrrolidine]	+ (LOQ ≤ + <5%)
c1cc2c(c3c1CO[C@@H]3[C@@H]1CCCN1)OCO2 [Compound I-142, (S)-2-((S)-6,8-dihydro-[1,3]dioxolo[4,5-e]isobenzofuran-8-yl)-pyrrolidine]	+ (LOQ ≤ + <5%)
c1cc2c(c3c1CCO[C@@H]3[C@@H]1CCN1)OCO2 [Compound I-143, (S)-2-((S)-7,9-dihydro-6H-[1,3]dioxolo[4,5-h]isochromen-9-yl)azetidine]	+ (LOQ ≤ + <5%)
c1cc2c(c3c1CCO[C@H]3[C@@H]1CCN1)OCO2 [Compound I-144, (S)-2-((R)-7,9-dihydro-6H-[1,3]dioxolo[4,5-h]isochromen-9-yl)azetidine]	+ (LOQ ≤ + <5%)

From US10336732B2, “1-heterocyclyl isochromanyl compounds and analogs for treating CNS disorders” (Sunovion Pharmaceuticals Inc., priority 2015, dated 2019)
